Data set [1] in a line: excretion route of the iron complex. The settings on record: in vivo.
Data set [2] can be described thus: T1-relaxivity measurements at different magnetic field strengths in water and foetal bovine serum. In kind it is physicochemical. The protocol: For the subsequent T1-relaxivity measurements which were carried out, ultra-pure water and foetal bovine serum (FBS, pH 7.7) were used as the solvent for the metallic complexes. The relaxivity measurements at different magnetic field strengths were carried out on the following instruments: 0.94 T with a NMR relaxometer (Bruker Minispec mq 40, Germany), 1.5 T with a SIEMENS MAGNETOM Sonata MRI, 3 T with a SIEMENS MAGNETOM Lumina MRI and 7 T with a Bruker Pharmascan Kleintier-MRI.

Data set [3] in a line: pH dependency of T1- and T2-relaxivity in water (0.94 T NMR relaxometer). Particulars: pH<6. Type of data set: physicochemical. From the text:
At pH<6, a maximum T1-relaxivity of 1.7 l·mmol^−1·s^−1 or T2-relaxivity of 1.9 l·mmol^−1·s^−1 was reached.

SMILES strings stand for the structures.

As to `O=C(O)CN(CC(=O)O)[C@@H]1CCCC[C@H]1N(CC(=O)O)CC(=O)N[C@H]1CC[C@H](NC(=O)CN(CC(=O)O)[C@@H]2CCCC[C@H]2N(CC(=O)O)CC(=O)O)CC1` [(1-2)], the excretion route result in data set [1] is listed as “liver excretion”. Moreover, the “T1-relaxivity (r1) per metal ion” value in data set [2] (0.94 T, 37° C., FBS (pH 7.7)) came out at 2.18 L/mmol/s; in data set [2] (0.94 T, 37° C., water), 1.99 L/mmol/s; in data set [2] (1.5 T, 23° C., FBS (pH 7.7)), 3.26 L/mmol/s; in data set [2] (1.5 T, 23° C., water) it was 2.75 L/mmol/s; in data set [2] (3.0 T, 37° C., FBS (pH 7.7)) it was 3.39 L/mmol/s; in data set [2] (3.0 T, 37° C., water) it was 2.99 L/mmol/s. Besides, the “T1-relaxivity (r1) per metal ion” value in data set [2] (7.0 T, 37° C., FBS (pH 7.7)) amounted to 3.23 L/mmol/s; in data set [2] (7.0 T, 37° C., water), 2.65 L/mmol/s. The T1-relaxivity per molecule is 4.36 L/mmol/s in data set [2] (0.94 T, 37° C., FBS (pH 7.7)); 3.98 L/mmol/s in data set [2] (0.94 T, 37° C., water); 6.52 L/mmol/s in data set [2] (1.5 T, 23° C., FBS (pH 7.7)); 5.5 L/mmol/s in data set [2] (1.5 T, 23° C., water); 6.78 L/mmol/s in data set [2] (3.0 T, 37° C., FBS (pH 7.7)); 5.98 L/mmol/s in data set [2] (3.0 T, 37° C., water). For the same compound, the T1-relaxivity per molecule in data set [2] (7.0 T, 37° C., FBS (pH 7.7)) turned out to be 6.46 L/mmol/s; in data set [2] (7.0 T, 37° C., water) it was 5.3 L/mmol/s.
For the compound `NCCNC(=O)CN(CC(=O)O)[C@@H]1CCCC[C@H]1N(CC(=O)O)CC(=O)O` [(2-1)], in data set [3], the “maximum T1-relaxivity” value stood at 1.7 L/mmol/s and the “maximum T2-relaxivity” value was found to be 1.9 L/mmol/s.
Regarding `N[C@H]1CC[C@H](NC(=O)CN(CC(=O)O)[C@@H]2CCCC[C@H]2N(CC(=O)O)CC(=O)O)CC1` [(2-2)], the “T1-relaxivity (r1) per metal ion” value in data set [2] (0.94 T, 37° C., FBS (pH 7.7)) amounted to 2.01 L/mmol/s; in data set [2] (0.94 T, 37° C., water), 1.92 L/mmol/s; in data set [2] (1.5 T, 23° C., FBS (pH 7.7)), 2.74 L/mmol/s; in data set [2] (1.5 T, 23° C., water), 2.27 L/mmol/s; in data set [2] (3.0 T, 37° C., FBS (pH 7.7)) it was 3.06 L/mmol/s; in data set [2] (3.0 T, 37° C., water), 2.64 L/mmol/s. Further, the “T1-relaxivity (r1) per metal ion” value was 2.61 L/mmol/s in data set [2] (7.0 T, 37° C., FBS (pH 7.7)) and 2.38 L/mmol/s in data set [2] (7.0 T, 37° C., water).

Source of the values: patent US12465659B2, “Iron(III) complexes having new contrast agent properties, for magnetic resonance imaging” (CHARITÉ—UNIVERSITÄTSMEDIZIN BERLIN, priority 2019, dated 2025).
